In brackets after ≈: the same amount, converted by molar mass.
Assays:
Format in all cases: functional
[1] = test system: SK-MEL-5; assay: Anticancer activity against Homo sapiens (human) SK-MEL-5 cells after 48 hr by SRB assay; details: SK-MEL-5, 48 h
[2] = test system: HCT-116; assay: Growth inhibition of Homo sapiens (human) HCT116 cells at 10 uM after 48 hr by SRB assay; details: HCT-116, 48 h, read-out: GI
[3] = test system: T47D; assay: Anticancer activity against Homo sapiens (human) T47D cells after 48 hr by SRB assay
[4] = test system: IGROV-1; assay: Growth inhibition of Homo sapiens (human) IGROV1 cells at 10 uM after 48 hr by SRB assay; details: IGROV-1, 48 h, read-out: GI
[5] = test system: MDA-MB-468; assay: Anticancer activity against Homo sapiens (human) MDA-MB-468 cells after 48 hr by SRB assay; details: MDA-MB-468, 48 h
[6] = test system: HCT-15; assay: Growth inhibition of Homo sapiens (human) HCT15 cells at 10 uM after 48 hr by SRB assay; details: HCT-15, 48 h, read-out: GI
[7] = test system: SN12C; assay: Growth inhibition of Homo sapiens (human) SN12C cells at 10 uM after 48 hr by SRB assay; details: read-out: GI
[8] = test system: DU-145; assay: Anticancer activity against Homo sapiens (human) DU145 cells after 48 hr by SRB assay; details: DU-145, 48 h
[9] = test system: OVCAR-3; assay: Anticancer activity against Homo sapiens (human) OVCAR3 cells after 48 hr by SRB assay; details: OVCAR-3, 48 h
[10] = test system: SK-OV-3; assay: Anticancer activity against Homo sapiens (human) SKOV3 cells after 48 hr by SRB assay; details: SK-OV-3, 48 h
[11] = test system: NCI-H23; assay: Anticancer activity against Homo sapiens (human) NCI-H23 cells after 48 hr by SRB assay; details: NCI-H23, 48 h
[12] = test system: PC-3; assay: Anticancer activity against Homo sapiens (human) PC3 cells after 48 hr by SRB assay; details: PC-3, 48 h
[13] = test system: Escherichia coli; assay: Antimicrobial activity against Escherichia coli ATCC 11775 after 48 hr by two-fold serial broth dilution method; details: ATCC 11775, 48 h
[14] = test system: NCI/ADR-RES; assay: Anticancer activity against Homo sapiens (human) NCI/ADR-RES cells after 48 hr by SRB assay
[15] = test system: 786-0; assay: Anticancer activity against Homo sapiens (human) 786-0 cells after 48 hr by SRB assay; details: 786-0, 48 h
[16] = test system: MDA-MB-435; assay: Anticancer activity against Homo sapiens (human) MDA-MB-435 cells after 48 hr by SRB assay; details: MDA-MB-435, 48 h
[17] = test system: HL-60(TB); assay: Growth inhibition of Homo sapiens (human) HL-60(TB) cells at 10 uM after 48 hr by SRB assay; details: HL-60, 48 h, read-out: GI
[18] = test system: UACC-257; assay: Anticancer activity against Homo sapiens (human) UACC257 cells after 48 hr by SRB assay; details: UACC-257, 48 h
[19] = test system: BT-549; assay: Growth inhibition of Homo sapiens (human) BT549 cells at 10 uM after 48 hr by SRB assay; details: BT-549, 48 h, read-out: GI
[20] = test system: EKVX; assay: Anticancer activity against Homo sapiens (human) EKVX cells after 48 hr by SRB assay
[21] = test system: COLO 205; assay: Anticancer activity against Homo sapiens (human) COLO205 cells after 48 hr by SRB assay; details: COLO 205, 48 h
[22] = test system: U-251; assay: Growth inhibition of Homo sapiens (human) U251 cells at 10 uM after 48 hr by SRB assay; details: U-251, 48 h, read-out: GI
[23] = test system: MCF7; assay: Anticancer activity against Homo sapiens (human) MCF7 cells after 48 hr by SRB assay; details: MCF7, 48 h
[24] = test system: Staphylococcus aureus; assay: Antimicrobial activity against Staphylococcus aureus DSM 1104 after 48 hr by two-fold serial broth dilution method; details: DSM 1104, 48 h
[25] = test system: RXF 393; assay: Anticancer activity against Homo sapiens (human) RXF393 cells after 48 hr by SRB assay; details: RXF 393, 48 h
[26] = test system: UO-31; assay: Anticancer activity against Homo sapiens (human) UO31 cells after 48 hr by SRB assay; details: UO-31, 48 h
[27] = test system: OVCAR-5; assay: Anticancer activity against Homo sapiens (human) OVCAR5 cells after 48 hr by SRB assay; details: OVCAR-5, 48 h
[28] = test system: HOP-92; assay: Anticancer activity against Homo sapiens (human) HOP92 cells after 48 hr by SRB assay; details: HOP-92, 48 h
[29] = test system: UO-31; assay: Growth inhibition of Homo sapiens (human) UO31 cells at 10 uM after 48 hr by SRB assay; details: UO-31, 48 h, read-out: GI
[30] = test system: K562; assay: Growth inhibition of Homo sapiens (human) K562 cells at 10 uM after 48 hr by SRB assay; details: K562, 48 h, read-out: GI
[31] = read-out: LC50 (the source's name)

Compound: COc1ccc(OC)c(/C=C/c2nnc(S)n2-c2ccc(Cl)cc2)c1
- GI50 [1]: 3.58 µM
- LC50 [1]: > 100 µM
- TGI [1]: > 100 µM
- inhibition of growth at 10 µM [2]: 70.4%
- GI50 [3]: 4.5 µM
- TGI [3]: > 100 µM
- CC50 [3, 31]: > 100 µM
- inhibition of growth at 10 µM [4]: 59.9%
- GI50 [5]: 3.51 µM
- TGI [5]: 55.4 µM
- CC50 [5, 31]: > 100 µM
- inhibition of growth at 10 µM [6]: 58.8%
- inhibition of growth at 10 µM [7]: 33.8%
- GI50 [8]: 19.1 µM
- TGI [8]: > 100 µM
- CC50 [8, 31]: > 100 µM
- GI50 [9]: 3.34 µM
- LC50 [9]: > 100 µM
- TGI [9]: 21.4 µM
- GI50 [10]: 9.4 µM
- LC50 [10]: > 100 µM
- TGI [10]: > 100 µM
- GI50 [11]: 5.88 µM
- TGI [11]: > 100 µM
- CC50 [11, 31]: > 100 µM
- GI50 [12]: 8.91 µM
- TGI [12]: > 100 µM
- CC50 [12, 31]: > 100 µM
- MBC [13]: 50 µg/mL (≈ 134 µM)
- MIC [13]: 50 µg/mL (≈ 134 µM)
- GI50 [14]: 3.63 µM
- LC50 [14]: > 100 µM
- TGI [14]: > 100 µM
- GI50 [15]: 7.17 µM
- TGI [15]: > 100 µM
- CC50 [15, 31]: > 100 µM
- GI50 [16]: 2.83 µM
- TGI [16]: > 100 µM
- CC50 [16, 31]: > 100 µM
- inhibition of growth at 10 µM [17]: 95.7%
- GI50 [18]: > 100 µM
- LC50 (50% lethal concentration) [18]: > 100 µM
- TGI [18]: > 100 µM
- inhibition of growth at 10 µM [19]: 32.8%
- GI50 [20]: 30 µM
- TGI [20]: > 100 µM
- CC50 [20, 31]: > 100 µM
- GI50 [21]: 12.4 µM
- TGI [21]: 68.4 µM
- CC50 [21, 31]: > 100 µM
- inhibition of growth at 10 µM [22]: 46.7%
- GI50 [23]: 4.44 µM
- TGI [23]: > 100 µM
- CC50 [23, 31]: > 100 µM
- MBC [24]: 100 µg/mL (≈ 267 µM)
- MIC [24]: 100 µg/mL (≈ 267 µM)
- GI50 [25]: 3.38 µM
- LC50 [25]: > 100 µM
- TGI [25]: 38.7 µM
- GI50 [26]: 2.25 µM
- LC50 (50% lethal concentration) [26]: > 100 µM
- GI50 [27]: 70.3 µM
- TGI [27]: > 100 µM
- CC50 [27, 31]: > 100 µM
- GI50 [28]: 3.56 µM
- TGI [28]: > 100 µM
- CC50 [28, 31]: > 100 µM
- inhibition of growth at 10 µM [29]: 52.9%
- inhibition of growth at 10 µM [30]: 77.6%

— ChEMBL document CHEMBL3046389, “Synthesis and biological evaluation of novel hydroquinone dimethyl ethers as potential anticancer and antimicrobial agents” (2013)
